{"source": "patent US5037812A", "about": "“Tumor cell growth-inhibiting pharmaceutical compositions containing phosphino-hydrocarbon-gold, silver or copper complexes” (priority 1986, dated 1991)", "key": {"B16 melanoma": {"test_system": "B16 melanoma", "assay": "in vivo ip B16 melanoma assay", "set-up": "species or system mice (B6D2F1)", "settings": "ip qDX10", "description": "Daily treatment is begun 24 hours after tumor implantation and is continued daily for ten (10) days. The route of drug administration is ip. The mice are monitored daily for survival for sixty (60) days. Antitumor activity is assessed by prolongation of median survival time. An ILS of ≥25% indicates activity in this tumor model.\n^(b) maximally tolerated dose for B6D2F1 mice on an ip qDX10\n^(c) maximum increase in lifespan produced in mice bearing ip B16"}, "[1]": {"test_system": "HT-29 human colon carcinoma cells", "assay": "HT-29 human colon carcinoma cell killing in vitro", "format": "cell-based", "settings": "2-hour exposure"}, "[2]": {"test_system": "M5076 reticulum cell sarcoma", "assay": "ip M5076 reticulum cell sarcoma in mice", "format": "in vivo, mice (B6D2F female)", "description": "Another tumor model used for evaluation of tumor growth inhibiting drugs is intraperitoneally implanted M5076 reticulum cell sarcoma in mice. […] Drugs are administered ip. Daily treatment is begun 24 hours after implantation and is continued for ten days. The treatment regimen for M5076 is more prolonged than for P388 because of the slower growth rate and longer control survival time of the M5076 tumor. Compounds of Formula (I) and Formula (II) were evaluated in this assay. An evaluation of several compounds of Formula (I) in the M5076 reticulum cell sarcoma assay at their maximally tolerated dose (MTD) is set forth in Table III. An ILS of ≥25% indicates activity in this tumor model.\n^(b) maximally tolerated dose for B6D2F female mice on an ip qDX10\n^(c) maximum increase in lifespan produced in mice bearing ip M5076"}, "[3]": {"test_system": "mammary adenocarcinoma 16/c", "assay": "sc mammary adenocarcinoma 16/c tumor model", "format": "in vivo, mice (C3H)", "settings": "for Inhibition: Day 21", "description": "In this experiment, the tumor was implanted sc in C3H mice, and the drug was administered ip or iv on an intermittent treatment schedule, i.e., once on days 1, 5, 9, 13 and 17. Tumors were measured 3 weeks after implantation, and activity was assessed by degree of tumor growth inhibition.\n*N.P. = Proportion of mice without palpable tumors on Day 21"}, "P388 leukemia": {"test_system": "P388 leukemia", "assay": "ip P388 leukemia mouse model", "format": "in vivo, mice (B6D2F1)", "description": "This tumor system is widely accepted as an antitumor agent screening tool because it is sensitive to virtually all of the clinically active antineoplastic agents; quantitative and reproducible; amenable for large-scale screening; and predictive for activity in other animal tumor models.\n10^6 P388 leukemia cells are inoculated ip in B6D2F1 mice. Twenty-four hours later, if the tumor inoculum proves to be free of bacterial contamination (as determined by 24 hours incubation in thioglycollate broth), animals are randomized into groups of 6 and housed in shoebox cages. […] An equal volume of saline or water is added; if the drug comes out of solution an equal volume of Cremophor (polyethoxylated castor oil) is added and then saline or water, as to a concentration such that the desired dose is delivered in 0.5 ml. The final concentration of DMA, ethanol or Cremophor is 10 percent. Dilutions for lower doses are made with saline or water so that there is a decreasing proportion of organic solvents in the vehicle with decreasing dosage. […] Formulations are prepared immediately prior to injection. The Formula (I) and Formula (II) compounds are administered ip on Days 1 through 5 (i.e., treatment is initiated 24 hrs after tumor inoculation). Each experiment includes three groups of 6 animals as untreated controls and animals treated with a positive control, cisplatin, at two dose levels. Animals are weighed as a group on Days 1, 5 and 9 and average weight change (Δwt.) is used as a reflection of toxicity. Each experiment also includes an inoculum titration--groups of 8 mice inoculated ip with 10^5 to 10^0 P388 leukemia cells. The titration is used as a quality control check for the performance of the tumor model. Animals are monitored daily for mortality and experiments are terminated after 45 days. The endpoint is median survival time (MST) and increase in lifespan (ILS) which is the percentage of increase in MST relative to untreated controls."}, "[4]": {"assay": "solubility in 9:1 water:ethanol (HPLC of filtrate)", "method": "Such solubility was determined as follows: The compound in question was dissolved or suspended in absolute ethanol (250 mg solid per 1.0 ml ethanol). To the resulting solution or suspension, water (9.0 times the volume of ethanol) was added. This suspension was stirred vigorously for 15 hours, then filtered through a 0.45 μm poly(tetrafluoroethylene) (PTFE) filter. […] The HPLC system was as follows:\nColumn PLRP-S, 5μm, obtained from Polymer Laboratories, Inc.\nMobile Phase 9:1 acetonitrile:0.1% tetra-n-butylammonium hydrogen sulfate (50° C., 1.0 ml-min-^-1)\nDetection Ultraviolet (250 nm)"}, "B16 melanoma cells": {"test_system": "B16 melanoma cells", "assay": "B16 melanoma cell assay, clonogenic capacity in vitro after two-hour exposure", "format": "cell-based", "settings": "2-hour exposure; read-out: IC50: concentration which inhibits cloning efficiency of B16 melanoma cells by 50%", "description": "The B16 melanoma cell assay measures the ability of a compound to inhibit the clonogenic capacity of cells in vitro following a two-hour exposure to the compound.\nB16 melanoma (highly metastatic subline, F10) are used and maintained as monolayer cultures in Minimal Essential Media (Grand Island Biological Col., Grand Island, N.Y.) supplemented with 10% calf serum, 1% antibiotics in a 5% CO2 humidified incubator at 37° C. Asynchronous populations of cells are harvested and replated to 5000 cells/plate in sterile 60 mm×15 mm petri plates. Plates are incubated overnight to allow attachment of the cells to the plate. Cells are treated with a Formula (I) or Formula (II) compound/under sterile conditions, allowed to react for 2 hours followed by aspiration of medium. Plates are washed one time with 5 ml of phosphate buffered saline (PBS), followed by the addition of 5 ml of fresh medium. Plates are incubated for 5 days at 37° C. in a CO2 incubator. Viability is measured by the ability of a cell to form a colony of greater than 50 cells. Colonies are fixed with 0.5% crystal violet in 95% ethanol. Plates are dried and counted with a Biotran III Automatic Count Totalizer (New Brunswick Scientific Co., Edison, N.J.). Mean and standard deviation of triplicate samples are determined for each drug concentration. The data are analyzed plotting the log of the survival fraction (number of colonies in drug treated plates/number of colonies in controls) versus the drug concentration.\n^a Concentration which inhibits cloning efficiency of B16 melanoma\ncells by 50% on a 2hour exposure"}, "[5]": {"test_system": "M5076 reticulum cell sarcoma", "settings": "2 mg/kg ip, qD × 10", "description": "B6D2F female mice are inoculated sc in the flank with 0.5 ml of a 10% (w:v) brei of M5076 prepared from pooled sc tumors excised at about Day 21 from C57Bl/6 donors. Treatment is initiated one day after tumor implantation, and is continued daily for 10 days. Tumors are measured 21 days after tumor implantation activity is determined by the degree of tumor growth inhibition."}, "[6]": {"settings": "Experiment 1, ip, q4D × 5, 8 mg/kg"}, "[7]": {"settings": "Experiment 2, ip, q4D × 5, 6 mg/kg"}, "[8]": {"settings": "Experiment 2, iv, q4D × 5, 12 mg/kg"}, "[9]": {"settings": "Experiment 3, ip, q4D × 5, 8 mg/kg"}}, "note": "“And” between values parts separate entries of the source, which are not always exact repeats. Equal entries are not always repeated.", "data": [{"smiles": "[Au+].[Cl-].c1ccc(P(CCP(c2ccccc2)c2ccccc2)c2ccccc2)cc1.c1ccc(P(CCP(c2ccccc2)c2ccccc2)c2ccccc2)cc1", "note": "[Compound No. 1, Bis[1,2-Bis(diphenylphosphino)ethane]Gold(I) Chloride]", "values": [{"measurement": "MTD (maximally tolerated dose)", "setting": "B16 melanoma; B6D2F1 mice", "result": 2, "unit": "mg/kg"}, {"measurement": "ILS (maximum increase in lifespan)", "setting": "B16 melanoma; mice bearing ip B16 melanoma, slash-separated figures are separate experiments", "result": "50% and 43% and 33% and 28% and 37%"}, {"measurement": "effectively killed HT-29 cells following exposure to concentrations", "setting": "[1]", "result": "< 10", "unit": "µM"}, {"measurement": "MTD (maximally tolerated dose)", "setting": "[2]; B6D2F female mice, ip qDX10", "result": 2, "unit": "mg/kg"}, {"measurement": "ILS max (maximum increase in lifespan)", "setting": "[2]; mice bearing ip M5076, ip qDX10 at MTD, slash-separated figures are separate experiments", "result": "56% and 83% and 52% and 47% and 49%"}, {"measurement": "Mean Tumor Volume on Day 21", "setting": "[3]; [6]", "result": "96 ± 143", "unit": "mm^3"}, {"measurement": "N.P. (proportion of mice without palpable tumors on Day 21)", "setting": "[3]; [6]", "result": "4/7"}, {"measurement": "Inhibition", "setting": "[3]; [6]", "result": 92, "unit": "%"}, {"measurement": "Mean Tumor Volume on Day 21", "setting": "[3]; [7]", "result": "430 ± 291", "unit": "mm^3"}, {"measurement": "N.P. (proportion of mice without palpable tumors on Day 21)", "setting": "[3]; [7]", "result": "0/8"}, {"measurement": "Inhibition", "setting": "[3]; [7]", "result": 61, "unit": "%"}, {"measurement": "Mean Tumor Volume on Day 21", "setting": "[3]; [8]", "result": "181 ± 163", "unit": "mm^3"}, {"measurement": "N.P. (proportion of mice without palpable tumors on Day 21)", "setting": "[3]; [8]", "result": "2/8"}, {"measurement": "Inhibition", "setting": "[3]; [8]", "result": 84, "unit": "%"}, {"measurement": "Mean Tumor Volume on Day 21", "setting": "[3]; [9]", "result": 0, "unit": "mm^3"}, {"measurement": "N.P. (proportion of mice without palpable tumors on Day 21)", "setting": "[3]; [9]", "result": "5/5"}, {"measurement": "Inhibition", "setting": "[3]; [9]", "result": 100, "unit": "%"}, {"measurement": "MTD (maximally tolerated dose)", "setting": "P388 leukemia; B6D2F female mice, ip qDX5", "result": 2, "unit": "mg/kg"}, {"measurement": "ILS max (maximum increase in lifespan)", "setting": "P388 leukemia; mice bearing ip P388 leukemia, ip days 1-5 at MTD, slash-separated figures are separate experiments", "result": "83 ± 24", "unit": "%"}, {"measurement": "solubility in 9:1 water:ethanol (in words)", "setting": "[4]; 9:1 water:ethanol", "result": "true solution"}, {"measurement": "Solubility in 9:1 Water:Ethanol", "setting": "[4]; stirred 15 hours, 0.45 μm PTFE filter, HPLC", "result": 170, "unit": "µg/mL"}, {"measurement": "solubility in water (in words)", "setting": "[4]; water", "result": "forms a suspension in water"}, {"measurement": "IC50", "setting": "B16 melanoma cells", "result": 4.5, "unit": "µM"}, {"measurement": "% Inhibition of tumor growth (Day 21)", "setting": "[5]", "result": "91% and 48%"}, {"measurement": "N.P. (proportion of mice without palpable tumor on Day 21)", "setting": "[5]", "result": "2/7 and 1/7"}]}]}
